Values of other authors, collected in patent publication US6191117A, “Methods of producing weight loss and treatment of obesity” (priority 2000, dated 2001).
“Also recorded” adds a separate entry of the source. Read-outs that look alike come from different tables or passages of the source.

How the values were obtained:
lateral hypothalamus [1] = settings: injection into lateral hypothalamus
[2] = test system: strychnine-insensitive glycine-binding site
[3] = test system: NMDA receptor glycine site
[4] = test system: PFH (perifornical hypothalamus)
NMDA receptors [5] = settings: in vivo
NMDA receptors [6] = test system: NMDA receptors
seizure patients = settings: monotherapy
lateral hypothalamus [7] = settings: rats previously given intrahypothalamic injections
[8] = test system: NMDA receptor glycine site; settings: bilateral LH injection
[9] = test system: PVN (paraventricular nucleus)
[10] = injection into LH bilaterally for 8 days

Molecule: Cc1onc(O)c1CC(N)C(=O)O (racemic) [AMPA, D,L-α-amino-3-hydroxy-5-methyl-isoxazole proprionic acid]
- eating response on LH injection (lateral hypothalamus [1]): elicit a strong dose-dependent eating response; also recorded: elicited eating in a dose-dependent fashion; also recorded: trigger intense eating; also recorded: quantitatively similar eating responses

Molecule: N[C@H](CO)C(=O)O [D-serine]
- 7CK induced feeding ([2]; rat, in vivo): dose-dependently antagonized 7CK induced feeding

Molecule: NCC(=O)O [glycine]
- block by 7-CK of NMDA-elicited eating, after LH pretreatment with glycine ([3]; LH pretreatment): reversed this block

Molecule: CNC[C@H](O)c1ccc(O)c(O)c1 [epinephrine]
- effect on eating in PFH [4]: feeding-suppressive effects

Molecule: N[C@H](CCCP(=O)(O)O)C(=O)O [D-AP5]
- eating responses elicited by AMPA (NMDA receptors [5]): without affecting
- eating responses elicited by kainic acid (NMDA receptors [5]): without affecting
- reduction of the 10-gram eating response elicited by NMDA (NMDA receptors [5]): 72-90%
- suppression of deprivation-induced eating responses (NMDA receptors [6]; in vivo): ≤ 61%
- suppression of nocturnal eating (NMDA receptors [6]; in vivo): ≤ 40%
- body weight loss (NMDA receptors [6]; [10]): up to 13 grams/day
- reduction in daily food intake (NMDA receptors [6]; [10]): 65%

Molecule: neuropeptide Y
- effect on eating in PFH [4]: feeding-stimulatory effects

Molecule: NCCc1ccc(O)c(O)c1 [dopamine]
- effect on eating in PFH [4]: feeding-suppressive effects

Molecule: NC(=O)N1c2ccccc2C=Cc2ccccc21 [carbamazepine]
- weight gain as monotherapy (seizure patients): associated with weight gain

Molecule: Nc1nnc(-c2cccc(Cl)c2Cl)c(N)n1 [LTG]
- action on sodium channel (sodium channel): blocking the sodium channel
- anorexia and nausea incidence (100 mg and 200 mg, adjunctive therapy and monotherapy): 6-15%
- effect on body weight (12 months or up to 144 weeks): no significant effect on body weight

Molecule: C=C(C)[C@H]1CN[C@H](C(=O)O)[C@H]1CC(=O)O [KA, Kainic acid]
- eating response on LH injection (lateral hypothalamus [1]): elicit a strong dose-dependent eating response; also recorded: elicited eating in a dose-dependent fashion; also recorded: trigger intense eating
- eating response on LH injection (lateral hypothalamus [1]; listed as kainic acid): quantitatively similar eating responses
- feeding and drinking (lateral hypothalamus [7]): impaired

Molecule: CCCC(CCC)C(=O)O [valproate]
- weight gain as monotherapy (seizure patients): associated with weight gain

Molecule: O=C(O)c1cc(O)c2ccc(Cl)cc2n1 [7-CK, 7-chlorokynurenic acid]
- AMPA-elicited eating ([3]; 7-CK 0.1 nmol): suppressed feeding elicited by KA or AMPA; also recorded: virtually blocking it
- KA-elicited eating ([3]; 7-CK 0.1 nmol): suppressed feeding elicited by KA or AMPA; also recorded: suppressed KA-elicited eating
- NMDA-elicited eating ([3]; 7-CK 0.1 nmol): enhanced NMDA-elicited eating
- AMPA-elicited eating ([3]; 7-CK 10 nmol): suppressed eating elicited by AMPA
- KA-elicited eating ([3]; 7-CK 10 nmol): enhancing eating elicited by KA; also recorded: markedly enhanced the KA-elicited response
- NMDA-elicited eating ([3]; 7-CK 10 nmol): blocked NMDA-elicited eating
- NMDA-elicited eating ([3]; LH injection before NMDA, satiated rats, dose not stated (high doses)): blocked
- eating produced by fasting [8]: effectively suppressed eating produced by fasting
- food intake ([2]; into intracerebral ventricles or paraventricular nucleus): dose-dependently increased food intake

Molecule: N[C@@H](CCC(=O)O)C(=O)O [glutamate]
- eating response on LH injection (lateral hypothalamus [1]): elicit a strong dose-dependent eating response; also recorded: elicited eating in satiated rats
- effect on eating in PVN [9]: relatively ineffective
- autonomic and endocrine effects (PVN injection) ([9]; PVN injections): can produce autonomic and endocrine effects
- effect on eating in PFH [4]: relatively ineffective
- autonomic and endocrine effects (PFH injection) ([4]; PFH injections): can produce autonomic and endocrine effects

Molecule: NCCCC(=O)O [γ-aminobutyric acid]
- effect on eating in PVN [9]: feeding-stimulatory effects

Molecule: NC[C@H](O)c1ccc(O)c(O)c1 [norepinephrine]
- effect on eating in PVN [9]: feeding-stimulatory effects
